Measured values taken from paper PMC11360041 (ACS Omega, 2024).

Columns and labels:
[1] = system: Rhizoctonia solani; format: cell-based; conditions: read-out: Inhibition rate, Rs
[2] = system: Phytophthora capsici; format: cell-based; conditions: read-out: Inhibition rate, Pc
[3] = system: Bipolaris maydis; format: cell-based; conditions: read-out: Inhibition rate, Bm
[4] = system: Fusarium graminearum; assay: microbe, parasite or virus in culture; format: cell-based; conditions: read-out: Inhibition rate, Fg
[5] = system: Botrytis cinerea; format: cell-based; conditions: read-out: Inhibition rate, Bc
[6] = system: TMV; assay: Inactivation effect of compounds against TMV in vivo; set-up: species or system tobacco mosaic virus; conditions: Tobacco mosaic virus, read-out: relative inhibition rate (%) inactive effect
[7] = system: Alternaria solani; format: cell-based; conditions: read-out: Inhibition rate, As
[8] = system: Physalospora piricola; format: cell-based; conditions: read-out: Inhibition rate, Pp, 50 mg/L, Physalospora piricola
[9] = system: Fusarium oxysporium f. sp. cucumeris; format: cell-based; conditions: read-out: Inhibition rate, Fc
[10] = system: Sclerotinia sclerotiorum; format: cell-based; conditions: read-out: Inhibition rate, Ss
[11] = system: watermelon anthracnose; assay: organism not typed; format: cell-based; conditions: read-out: Inhibition rate, Wa
[12] = system: TMV; assay: Protective effect of compounds against TMV in vivo; set-up: species or system tobacco mosaic virus; conditions: Tobacco mosaic virus, read-out: relative inhibition rate (%) protective effect
[13] = system: TMV; assay: Curative effect of compounds against TMV in vivo; conditions: Tobacco mosaic virus, read-out: relative inhibition rate (%) curative effect

SMILES | inhibition at 50 µg/mL [1] [%] | inhibition at 50 µg/mL [2] [%] | inhibition at 50 µg/mL [3] [%] | inhibition at 50 µg/mL [4] [%] | inhibition at 50 µg/mL [5] [%] | inhibition at 100 µg/mL [6] [%] | inhibition at 500 µg/mL [6] [%] | inhibition at 50 µg/mL [7] [%] | inhibition at 50 µg/mL [8] [%] | inhibition at 50 µg/mL [9] [%] | inhibition at 50 µg/mL [10] [%] | inhibition at 50 µg/mL [11] [%] | inhibition at 100 µg/mL [12] [%] | inhibition at 500 µg/mL [12] [%] | inhibition at 100 µg/mL [13] [%] | inhibition at 500 µg/mL [13] [%]
O=C(Cn1ccc(=O)c2ccccc21)NN=Cc1coc2ccccc12 [Compound 24] | 17.9 ± 1.5 | 19 ± 0.9 | 11.1 ± 1.8 | 19 ± 1.2 | 20.8 ± 1.5 | 0 | 33.5 ± 0.6 | 23.1 ± 1.3 | 17.6 ± 1.2 | 22.4 ± 1.2 | 12.2 ± 0.5 | 9.3 ± 0.7 |  |  |  | 
O=C(Cn1ccc(=O)c2ccccc21)NN=Cc1ccc(Br)cc1 [Compound 14] | 1.8 ± 0.7 | 21.4 ± 1.8 | 4.4 ± 0.6 | 2.4 ± 0.6 | 20.8 ± 2.1 | 0 | 31.7 ± 2.5 | 23.1 ± 1.5 | 32.4 ± 2.3 | 22.4 ± 1.3 | 2.4 ± 0.4 | 18.6 ± 1.7 |  |  |  | 
COC(=O)Nc1nc2ccccc2[nH]1 [carbendazim, reference compound] | 100 |  |  | 29 ± 1.7 | 86 ± 1.4 |  |  | 98 ± 1.4 | 96 ± 1.2 |  | 100 | 100 |  |  |  | 
COc1ccc(C=NNC(=O)Cn2ccc(=O)c3ccccc32)cc1OC [Compound 5] | 12.5 ± 1.4 | 14.3 ± 0.9 | 11.1 ± 0.7 | 14.3 ± 1.5 | 18.8 ± 1.9 | 0 | 11.3 ± 3.2 | 30.8 ± 2.1 | 22.1 ± 1.5 | 16.3 ± 1.3 | 24.4 ± 1.1 | 16.3 ± 1.2 |  |  |  | 
O=C(Cn1ccc(=O)c2ccccc21)NN=Cc1ccccc1[N+](=O)[O-] [Compound 16] | 35.7 ± 1.5 | 14.3 ± 0.7 | 13.3 ± 1.5 | 23.8 ± 1.7 | 20.8 ± 1.2 | 0 | 14.6 ± 4 | 30.8 ± 1.4 |  | 18.4 ± 1.3 | 24.4 ± 1.1 | 23.3 ± 1.6 |  |  |  | 
Cc1ccc(C=NNC(=O)Cn2ccc(=O)c3ccccc32)cc1 [Compound 2] | 17.9 ± 1.7 | 26.2 ± 1.8 | 11.1 ± 2.1 | 14.3 ± 1.3 | 25 ± 1.5 | 0 | 26.7 ± 3 | 30.8 ± 1.6 | 17.6 ± 1.4 | 28.6 ± 2.3 | 12.2 ± 1.2 | 14 ± 1.3 |  |  |  | 
CCOC(=O)Cn1ccc(=O)c2ccccc21 [Compound B, (4-Oxo-4H-quinolin-1-yl)-acetic Acid Ethyl Ester] |  |  |  |  |  | 0 | 32.1 ± 1.6 |  |  |  |  |  |  |  |  | 
O=C(Cn1ccc(=O)c2ccccc21)NN=Cc1cscn1 [Compound 22] | 26.8 ± 1.1 | 26.2 ± 1.5 | 8.9 ± 0.8 | 2.4 ± 0.5 | 25 ± 2.1 | 0 | 23.9 ± 1.1 | 7.7 ± 1.2 | 32.4 ± 1.3 | 12.2 ± 1.6 | 7.3 ± 0.9 | 14 ± 1.7 |  |  |  | 
O=C(Cn1ccc(=O)c2ccccc21)NN=Cc1ccc(Cl)cc1 [Compound 13] | 12.5 ± 1.4 | 14.3 ± 1.3 | 8.9 ± 0.7 | 2.4 ± 0.9 | 14.6 ± 1.3 | 0 | 18.6 ± 0.7 | 30.8 ± 1.3 | 17.6 ± 1.5 | 24.5 ± 1.3 | 7.3 ± 0.5 | 27.9 ± 2.3 |  |  |  | 
O=C(Cn1ccc(=O)c2ccccc21)NN=Cc1cccs1 [Compound 21] | 35.7 ± 1.5 | 26.2 ± 2.3 | 17.8 ± 1.2 | 9.5 ± 1.4 | 31.3 ± 2.1 | 0 | 12.3 ± 1.7 | 38.5 ± 1.3 | 76.5 ± 2.7 | 12.2 ± 1.6 | 17.1 ± 1.7 | 14 ± 0.7 |  |  |  | 
O=C(Cn1ccc(=O)c2ccccc21)NN=Cc1ccco1 [Compound 20] | 35.7 ± 1.8 | 14.3 ± 1.1 | 20 ± 1.1 | 14.3 ± 1.4 | 20.8 ± 1.3 | 0 | 29.7 ± 3.6 | 38.5 ± 0.5 | 39.7 ± 1.3 | 16.3 ± 2 | 36.6 ± 1.7 | 16.3 ± 1.6 |  |  |  | 
O=C(Cn1ccc(=O)c2ccccc21)NN=Cc1ccc([N+](=O)[O-])cc1 [Compound 15] | 17.9 ± 1.3 | 14.3 ± 0.6 | 40 ± 1.3 | 7.1 ± 1.3 | 27.1 ± 2.4 | 0 | 16.1 ± 4.8 | 30.8 ± 1.1 | 72.1 ± 2.6 | 24.5 ± 1.6 | 12.2 ± 1.4 | 34.9 ± 1.5 |  |  |  | 
CC(C)(C)c1ccc(C=NNC(=O)Cn2ccc(=O)c3ccccc32)cc1 [Compound 3] | 17.9 ± 1.8 | 23.8 ± 1.5 | 8.9 ± 0.7 | 16.7 ± 1.3 | 29.2 ± 1.7 | 0 | 24.1 ± 1 | 30.8 ± 2.3 | 35.3 ± 2.1 | 10.2 ± 1.6 | 22 ± 1.9 | 16.3 ± 1.3 |  |  |  | 
O=C(Cn1ccc(=O)c2ccccc21)NN=Cc1ccc(F)cc1 [Compound 12] | 32.1 ± 2.1 | 14.3 ± 1.6 | 15.6 ± 1.7 | 21.4 ± 1.4 | 25 ± 1.4 | 0 | 27.4 ± 3.9 | 23.1 ± 1.1 |  | 16.3 ± 1.5 | 7.3 ± 1.2 | 16.3 ± 1.6 |  |  |  | 
NNC(=O)Cn1ccc(=O)c2ccccc21 [C, (4-Oxo-4H-quinolin-1-yl)-acetic Acid Hydrazide] |  |  |  |  |  | 17.2 ± 1.1 | 45.9 ± 3.3 |  |  |  |  |  | 11.4 ± 2.9 | 47.8 ± 4.8 | 8.2 ± 0.5 | 31.5 ± 2
CN(C)c1ccc(C=NNC(=O)Cn2ccc(=O)c3ccccc32)cc1 [Compound 8] | 35.7 ± 2.1 | 14.3 ± 1.8 | 13.3 ± 1.4 | 23.8 ± 1.9 | 25 ± 1.2 | 0 | 28.1 ± 1.3 | 30.8 ± 2.3 | 29.4 ± 2.3 | 16.3 ± 1.6 | 12.2 ± 1.3 | 16.3 ± 1.7 |  |  |  | 
O=C(Cn1ccc(=O)c2ccccc21)NN=Cc1ccc(-n2cccn2)cc1 [Compound 9] | 35.7 ± 2.2 | 14.3 ± 1.1 | 15.6 ± 2.1 | 9.5 ± 0.5 | 25 ± 1.5 | 5.1 ± 0.8 | 38.1 ± 3.2 | 38.5 ± 1.3 | 27.9 ± 1.2 | 18.4 ± 0.7 | 12.2 ± 1.8 | 14 ± 1.5 |  |  |  | 
O=C(Cn1ccc(=O)c2ccccc21)NN=Cc1ccccc1 [Compound 1] | 14.3 ± 1.3 | 21.4 ± 1.1 | 15.6 ± 1.7 | 14.3 ± 1.2 | 33.3 ± 1.6 | 0 | 29.3 ± 1.4 | 30.8 ± 2.3 | 16.2 ± 0.5 | 22.4 ± 1.9 | 19.5 ± 0.7 | 16.3 ± 1.3 |  |  |  | 
O=C(Cn1ccc(=O)c2ccccc21)NN=Cc1cccnc1 [Compound 19] | 26.8 ± 1.4 | 14.3 ± 1.2 | 46.7 ± 1.1 | 26.2 ± 0.9 | 20.8 ± 0.9 | 0 | 20.5 ± 3.6 | 46.2 ± 2.2 | 44.1 ± 2.8 | 26.5 ± 0.7 | 36.6 ± 1.6 | 46.5 ± 1.3 |  |  |  | 
CSc1ccc(C=NNC(=O)Cn2ccc(=O)c3ccccc32)cc1 [Compound 10] | 3.6 ± 1.1 | 23.8 ± 1.6 | 13.3 ± 0.9 | 2.4 ± 0.6 | 14.6 ± 1.2 | 0 | 15.4 ± 2 | 30.8 ± 2.1 | 58.8 ± 3.2 | 12.2 ± 1.3 | 7.3 ± 1.4 | 14 ± 1.7 |  |  |  | 
N#Cc1c(Cl)c(Cl)c(Cl)c(C#N)c1Cl [chlorothalonil, reference compound] | < 50 | 73 ± 1.3 | 86 ± 1.2 | 73 ± 0.9 | 100 |  |  | 100 | 91 ± 1.3 | 100 | < 50 | 100 |  |  |  | 
